Results taken from paper PMC4510645, “Discovery of intramolecular trans-sialidases in human gut microbiota suggests novel mechanisms of mucosal adaptation” (Nature Communications, 2015).
Entries after “also recorded” stand apart in the source; their conditions may differ.

Legend:
[1] = biological target: T1, RgNanH (Mediterraneibacter gnavus (Ruminococcus gnavus), UniProt A7B557); test: Hydrolysis of sialic acid from glycoproteins monitored by 1H NMR; assay type: biochemical, Ruminococcus gnavus ATCC 29149; conditions: glycoprotein 1 mg ml^−1, 1 nM enzyme, 37 °C, pH 6.5, overnight
T1 sequence (A7B557 26-723): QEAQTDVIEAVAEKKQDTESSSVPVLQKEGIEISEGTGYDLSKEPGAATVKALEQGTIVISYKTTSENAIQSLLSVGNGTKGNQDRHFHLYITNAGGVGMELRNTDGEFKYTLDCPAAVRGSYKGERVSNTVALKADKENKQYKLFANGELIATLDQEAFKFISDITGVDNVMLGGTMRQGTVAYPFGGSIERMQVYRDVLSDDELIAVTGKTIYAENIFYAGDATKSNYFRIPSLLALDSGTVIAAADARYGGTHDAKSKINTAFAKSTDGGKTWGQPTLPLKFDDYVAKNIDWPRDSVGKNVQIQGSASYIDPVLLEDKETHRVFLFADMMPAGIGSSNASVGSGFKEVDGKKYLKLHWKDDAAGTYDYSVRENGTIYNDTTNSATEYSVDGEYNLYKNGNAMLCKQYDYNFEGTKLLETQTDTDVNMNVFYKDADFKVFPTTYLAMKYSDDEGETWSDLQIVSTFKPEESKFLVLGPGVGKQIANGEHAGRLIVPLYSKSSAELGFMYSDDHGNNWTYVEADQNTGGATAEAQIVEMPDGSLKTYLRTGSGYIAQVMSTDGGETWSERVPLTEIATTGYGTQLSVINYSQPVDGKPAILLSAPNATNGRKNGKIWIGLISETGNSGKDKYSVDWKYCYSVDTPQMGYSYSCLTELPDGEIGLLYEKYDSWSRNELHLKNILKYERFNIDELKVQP
Procedure: The ability of RgNanH to hydrolyse sialic acid from glycoproteins was investigated by incubation of the enzyme with human α-1-acid glycoprotein (AGP) and fetuin (Fet) both of which are known to contain α2-3 sialyl linkages, while asialo-Fet was also included as a control.
(§1) For specificity tests against sialylated oligosaccharides (1 mM) and glycoproteins (1 mg ml^−1), 1 nM of enzyme was incubated with the substrate at 37 °C, pH 6.5, overnight.
Extracts (400 μl) were mixed with 200 μl of D2O and 20 μl of a solution of D2O containing 1 mM of TSP (sodium 3-(trimethylsilyl)-propionate-d4). Samples (500 μl) were transferred into a 5-mm NMR tube for spectral acquisition. The ^1H NMR spectra were recorded at 600 MHz on a Bruker Avance spectrometer (Bruker BioSpin GmbH, Rheinstetten, Germany) running Topspin 2.0 software, and were fitted with a cryoprobe and a 60-slot autosampler. Each ^1H NMR spectrum was acquired with 128 scans, a spectral width of 8,012.8 Hz, an acquisition time of 2.04 s and a relaxation delay of 2.0 s. The ‘noesypr1d' presaturation sequence was used to suppress the residual water signal with a low-power selective irradiation at the water frequency during the recycle delay and a mixing time of 100 ms. Spectra were transformed with a 0.3-Hz line broadening, manually phased, baseline corrected and referenced by setting the TSP methyl signal to 0 p.p.m.

[2] = test system: AkmNan0625 and AkmNan1835; test: Specificity against sialyl-oligosaccharides, HPAEC-PAD (control sialidases); assay type: biochemical, Akkermansia muciniphila; parameters: key to Activity AkmNan0625 and AkmNan1835: +: Activity was defined as disappearance of the substrate peak and appearance of a lower-molecular weight peak, which could correspond to the desialylated substrate; conditions: 37 °C; for activity of AkmNan0625 and AkmNan1835 on substrate (in words): pH 6.5; for Activity AkmNan0625 and AkmNan1835: substrate 1 mM, 1 nM enzyme, pH 6.5, overnight
Procedure: (§2) Figure 2 Specificity of RgNanH towards sialylated oligosaccharides. The enzymes were incubated with sialylated substrates at 37 °C, pH 6.5, overnight and the reaction products were analysed by HPAEC-PAD. Control reactions without enzyme were also performed. The injection peak is marked (inj). Glycerol (gly) was also present in AkmNan0625. (a) Standards (Lac, Neu5Ac, 3′SL and 6′SL), (b) 3′SL, (c) 6′SL and (d) 3'-α-sialyl-N-acetyllactosamine (3′SLacNAc). AkmNan1835 has a similar profile to […].
All chemicals were obtained from Sigma (St Louis, USA) unless otherwise stated. The A. muciniphila sialidases, termed here AkmNan0625 and AkmNan1835, were obtained by His-Tag overexpression of their genes (Amuc_0625 and Amuc_1835, respectively)[56] in E. coli BL21(DE3) and subsequent purification to homogeneity by immobilized metal affinity chromatography as described below. The sialylated oligosaccharides and OC were obtained from Carbosynth (Berks, UK).
(§3) The purified enzymes were incubated with the substrate in buffer made from 20 mM Na2HPO4 and 20 mM NaH2PO4 adjusted to pH 6.5 containing 1 mg ml^−1 BSA at 37 °C unless otherwise stated. For 4MU-Neu5Ac, the progression of the reaction was monitored by the release of the MU using a 96-well plate reader (BMG Labtech, Ortenberg, Germany) using fluorescence with an excitation at 340 nm and an emission at 420 nm. For determining the optimal temperature, the assay was carried out in 20 mM PBS at pH 7.4. For determining the optimal pH, the assay was carried out at 37 °C using buffer made from 20 mM Na2HPO4 and 20 mM NaH2PO4 in varying proportions to obtain the desired pH. PNP release from PNP-Neu5Ac was monitored in a similar way measuring absorbance at 405 nm every 60 s. For 3′SL, the reaction was monitored by HPAEC-PAD. An aliquot of the reaction was removed from the main reaction volume at the reaction stopped by boiling for 20 min, the enzyme was then removed by centrifugation at 17,000g for 10 min and filtration with a 0.2-μm filter (Millipore, Billerica, USA). The sugars were separated by HPAEC with an isocratic gradient of 100 mM NaOH and 100 mM NaAC at 1 ml min^−1 on a CarboPac PA1 protected with a guard column and detected using PAD on a Dionex ICS5000 system (Thermo Scientific, Hemel Hempstead, UK). The column was cleaned with 10 ml of 500 mM NaOH and 500 mM NaAc, and the column was re-equilibrated with 100 mM NaOH and 100 mM NaAc. An internal standard of fucose was used to quantify the results.
as §1

[3] = test system: R. gnavus ATCC 29149; parameters: method as in PMID 24204617; conditions: R. gnavus ATCC 29149; cited from earlier work
[4] = biological target: T1, RgNanH; test: Kinetic parameters of RgNanH with sialylated substrates; assay type: biochemical, Ruminococcus gnavus ATCC 29149; conditions: pH 6.5, 37 °C
Procedure: as §3
For 4MU-Neu5Ac and 3′SL, the rate of hydrolysis without enzyme was not significant, thus raw data were used. However, for pNP-Neu5Ac, the rate of hydrolysis without enzyme was significant, thus the rate with enzyme was corrected by the subtraction of the rate without enzyme at each concentration of substrate. For 3′SL, the rate of reaction was calculated by plotting the amount of substrate remaining over the course of >50 % of the reaction using the following equation[58]: […]
Where k is kcat/KM × enzyme concentration, t is time, [S0] and [St] are substrate concentrations at time 0 and t, respectively.
Kinetic data were obtained from at least duplicate (usually triplicate) experiments, and the kinetic parameters were calculated by fitting the initial raw data to the Michaelis–Menten equation using a nonlinear regression analysis programme (Prism 6, GraphPad, San Diego, USA), and error bars (s.e.m.) are shown.

[5] = biological target: T1, RgNanH; test: Specificity against sialyl-oligosaccharides, HPAEC-PAD; assay type: biochemical, Ruminococcus gnavus ATCC 29149; parameters: key to Activity RgNanH: +: Activity was defined as disappearance of the substrate peak and appearance of a lower-molecular weight peak, which could correspond to the desialylated substrate; conditions: 37 °C
Procedure: as §2, §3, §1

In the case of “Fet: fetuin, glycoprotein known to contain α2-3 sialyl linkages”, the “activity of RgNanH against glycoprotein (2,7-anhydro-Neu5Ac peaks by 1H NMR)” value [1] is reported as “showed activity; also recorded: substrates”.

For Neu5Ac-α-2-3-Gal-β-1-4-Glc [3′SL], the “activity of AkmNan0625 and AkmNan1835 on substrate (in words)” value [2] is listed as “active”, the “Activity AkmNan0625 and AkmNan1835” value [2] is listed as “+” and the “ability of the bacteria to grow on the substrate” value [3] is listed as “grow”. For the same substance, the Ki ([4]; substrate inhibition, s.e.m.) was 760 ± 230 µM, the kcat ([4]; substrate of RgNanH) was 0.4283 s⁻¹ and the KM ([4]; substrate of RgNanH, s.e.m.) was “below detection limit”. For the same substance, the Km ([4]; substrate of RgNanH, s.e.m.) was < 100 µM, the Vmax ([4]; substrate of RgNanH, s.e.m.) was 0.0566 ± 0.0057 µM/min and the “Activity RgNanH” value ([5]; substrate 1 mM, 1 nM enzyme, pH 6.5, overnight) was “+”.

In the case of Neu5Ac-α-2-6-Gal-β1-4-Glc [6′SL], the “activity of AkmNan0625 and AkmNan1835 on substrate (in words)” value [2] is listed as “active”, the “Activity AkmNan0625 and AkmNan1835” value [2] is listed as “+” and the “ability of the bacteria to grow on the substrate” value [3] is listed as “not”. For the same substance, the “enzymatic activity of RgNanH on substrate (in words)” value ([5]; pH 6.5) was “no enzymatic activity”.

In the case of “asialo-Fet: asialo-fetuin, included as a control”, the “activity of RgNanH against glycoprotein (2,7-anhydro-Neu5Ac peaks by 1H NMR)” value [1] is reported as “no change”.
